Experimental data published in article PMC5522050, “Sulfatinib, a novel kinase inhibitor, in patients with advanced solid tumors: results from a phase I study” (Oncotarget, 2017).
Read-outs that look alike come from different tables or passages of the source.

Experiments:
advanced solid tumors = assay: tumor response by RECIST Version 1.0; assay type: in vivo, human
Method: Patients with NETs were enrolled with priority as preliminary efficacy was shown in these tumor types in the dose-escalation stage. Tumor response (an exploratory endpoint) was assessed according to RECIST Version 1.0 and measured at baseline, at the end of every treatment cycle in the first four cycles, and every other cycle thereafter. […] Calculations of the following parameters were made: ORR (CR + PR); SD defined as ≥1 assessment of SD at least six weeks after study entry; DCR (CR + PR + SD). TTR, DoR and PFS were analyzed in the subgroup of patients with NET.

278 other kinases = assay: kinase selectivity profile (broad kinase screening); assay type: biochemical
Description: (§1) Table 1 Sulfatinib kinase selectivity profile | column: IC50 (μM)

[1] = system: patients with advanced solid tumors; assay: phase I safety and tolerability (AEs, DLTs, MTD); assay type: in vivo; settings: doses of 50-350 mg QD and 125-150 mg BID; up to 350 mg QD (formulation 2)
Description: The primary objectives of this open-label, first-in-human phase I study (NCT02133157) were to determine MTD and the phase II dose of sulfatinib, and to evaluate the safety of sulfatinib in patients with advanced solid tumors. The secondary and exploratory objectives included evaluation of sulfatinib PK and preliminary anti-tumor activity. The study consisted of a dose-escalation phase (split into a single-dose period and continuous-dose period) and a tumor-specific expansion phase. Two sulfatinib formulations were used during the study: formulation 1 (5, 25, and 50 mg capsules) and formulation 2 (50 and 200 mg capsules). […]
During the dose-escalation phase, patients were given a single dose of sulfatinib and monitored for AEs for seven days. […] DLTs were assessed at the end of the 28-day period. […]
The study used a modified Fibonacci 3+3 dose-escalation design with at least three evaluable patients treated with each dose. […] If two or more of the first three or overall six patients experienced a DLT, the MTD was considered exceeded and the previous lower dose would be re-assessed to determine the MTD. […]
Safety and tolerability were assessed in all patients who received at least one dose of sulfatinib throughout the study. AEs were recorded throughout the study. […]

TrkB = TrkB (Homo sapiens, UniProt Q16620); assay: kinase selectivity profile; assay type: biochemical
Description: as §1

VEGFR 1 = VEGFR 1 (Homo sapiens, UniProt P17948); assay: kinase selectivity profile; assay type: biochemical
VEGFR 1, sequence (P17948 27-1338): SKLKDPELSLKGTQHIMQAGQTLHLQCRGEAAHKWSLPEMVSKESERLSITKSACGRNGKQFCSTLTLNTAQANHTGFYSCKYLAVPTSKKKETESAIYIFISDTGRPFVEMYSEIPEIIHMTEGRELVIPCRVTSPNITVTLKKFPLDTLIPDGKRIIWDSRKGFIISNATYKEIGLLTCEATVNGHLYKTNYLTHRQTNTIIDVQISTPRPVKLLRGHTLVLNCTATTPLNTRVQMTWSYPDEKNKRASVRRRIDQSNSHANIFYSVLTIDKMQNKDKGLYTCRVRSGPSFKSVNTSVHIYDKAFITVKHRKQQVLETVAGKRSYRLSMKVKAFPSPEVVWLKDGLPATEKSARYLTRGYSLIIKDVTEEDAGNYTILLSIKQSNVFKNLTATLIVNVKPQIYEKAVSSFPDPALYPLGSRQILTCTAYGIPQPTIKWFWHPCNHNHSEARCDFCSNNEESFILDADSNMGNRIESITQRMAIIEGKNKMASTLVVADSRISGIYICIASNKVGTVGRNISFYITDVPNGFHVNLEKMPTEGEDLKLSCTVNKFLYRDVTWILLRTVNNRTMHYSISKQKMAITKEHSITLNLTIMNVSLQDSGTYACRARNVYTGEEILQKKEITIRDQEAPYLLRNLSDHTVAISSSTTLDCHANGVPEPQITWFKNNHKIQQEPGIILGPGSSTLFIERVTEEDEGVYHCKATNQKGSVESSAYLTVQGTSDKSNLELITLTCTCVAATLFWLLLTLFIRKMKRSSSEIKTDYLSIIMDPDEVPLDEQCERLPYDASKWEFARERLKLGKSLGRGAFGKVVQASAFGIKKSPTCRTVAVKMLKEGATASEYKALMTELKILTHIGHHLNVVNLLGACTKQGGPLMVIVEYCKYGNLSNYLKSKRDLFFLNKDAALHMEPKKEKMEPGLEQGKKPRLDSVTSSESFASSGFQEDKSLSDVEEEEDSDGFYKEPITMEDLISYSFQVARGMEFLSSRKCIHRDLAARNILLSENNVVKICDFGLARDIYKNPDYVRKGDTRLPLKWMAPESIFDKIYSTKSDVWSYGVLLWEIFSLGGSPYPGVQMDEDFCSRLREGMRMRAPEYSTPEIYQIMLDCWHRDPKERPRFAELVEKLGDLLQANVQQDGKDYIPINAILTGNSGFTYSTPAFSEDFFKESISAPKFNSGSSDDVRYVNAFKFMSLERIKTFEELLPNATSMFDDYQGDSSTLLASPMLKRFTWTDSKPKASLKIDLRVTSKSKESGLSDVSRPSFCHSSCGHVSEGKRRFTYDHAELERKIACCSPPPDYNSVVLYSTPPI
Description: as §1

VEGFR 2 = VEGFR 2 (Homo sapiens, UniProt P35968); assay: kinase selectivity profile; assay type: biochemical
Description: as §1

FLT3 = biological target: T1, FLT3 (Homo sapiens, UniProt P36888); assay: kinase selectivity profile; assay type: biochemical
T1 sequence (P36888 27-993): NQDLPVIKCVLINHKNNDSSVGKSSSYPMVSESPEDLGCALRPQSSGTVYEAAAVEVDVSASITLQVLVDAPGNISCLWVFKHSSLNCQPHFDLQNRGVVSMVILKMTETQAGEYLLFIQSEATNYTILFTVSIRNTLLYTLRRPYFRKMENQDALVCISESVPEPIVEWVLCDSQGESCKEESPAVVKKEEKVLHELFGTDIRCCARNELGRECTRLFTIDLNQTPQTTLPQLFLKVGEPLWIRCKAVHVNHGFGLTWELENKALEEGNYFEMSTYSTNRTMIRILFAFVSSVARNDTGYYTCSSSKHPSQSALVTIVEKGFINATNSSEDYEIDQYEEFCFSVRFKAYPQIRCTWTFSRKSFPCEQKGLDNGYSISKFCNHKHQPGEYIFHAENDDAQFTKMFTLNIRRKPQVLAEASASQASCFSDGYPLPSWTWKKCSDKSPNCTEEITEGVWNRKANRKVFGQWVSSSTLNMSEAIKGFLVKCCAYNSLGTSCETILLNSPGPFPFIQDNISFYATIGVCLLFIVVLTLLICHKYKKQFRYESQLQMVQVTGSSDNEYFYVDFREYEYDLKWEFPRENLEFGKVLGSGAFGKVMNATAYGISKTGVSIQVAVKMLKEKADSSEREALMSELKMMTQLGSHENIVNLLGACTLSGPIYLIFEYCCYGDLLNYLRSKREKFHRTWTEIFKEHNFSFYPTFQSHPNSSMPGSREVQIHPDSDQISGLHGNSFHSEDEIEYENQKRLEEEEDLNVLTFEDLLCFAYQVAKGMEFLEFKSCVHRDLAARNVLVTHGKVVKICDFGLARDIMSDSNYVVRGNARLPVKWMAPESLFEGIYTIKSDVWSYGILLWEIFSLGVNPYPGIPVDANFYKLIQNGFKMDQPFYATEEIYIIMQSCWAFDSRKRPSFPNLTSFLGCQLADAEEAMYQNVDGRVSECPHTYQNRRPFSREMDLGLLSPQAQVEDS
Description: as §1

CSF1R = CSF1R (Homo sapiens, UniProt P07333); assay: kinase selectivity profile; assay type: biochemical
CSF1R, sequence (P07333 20-972): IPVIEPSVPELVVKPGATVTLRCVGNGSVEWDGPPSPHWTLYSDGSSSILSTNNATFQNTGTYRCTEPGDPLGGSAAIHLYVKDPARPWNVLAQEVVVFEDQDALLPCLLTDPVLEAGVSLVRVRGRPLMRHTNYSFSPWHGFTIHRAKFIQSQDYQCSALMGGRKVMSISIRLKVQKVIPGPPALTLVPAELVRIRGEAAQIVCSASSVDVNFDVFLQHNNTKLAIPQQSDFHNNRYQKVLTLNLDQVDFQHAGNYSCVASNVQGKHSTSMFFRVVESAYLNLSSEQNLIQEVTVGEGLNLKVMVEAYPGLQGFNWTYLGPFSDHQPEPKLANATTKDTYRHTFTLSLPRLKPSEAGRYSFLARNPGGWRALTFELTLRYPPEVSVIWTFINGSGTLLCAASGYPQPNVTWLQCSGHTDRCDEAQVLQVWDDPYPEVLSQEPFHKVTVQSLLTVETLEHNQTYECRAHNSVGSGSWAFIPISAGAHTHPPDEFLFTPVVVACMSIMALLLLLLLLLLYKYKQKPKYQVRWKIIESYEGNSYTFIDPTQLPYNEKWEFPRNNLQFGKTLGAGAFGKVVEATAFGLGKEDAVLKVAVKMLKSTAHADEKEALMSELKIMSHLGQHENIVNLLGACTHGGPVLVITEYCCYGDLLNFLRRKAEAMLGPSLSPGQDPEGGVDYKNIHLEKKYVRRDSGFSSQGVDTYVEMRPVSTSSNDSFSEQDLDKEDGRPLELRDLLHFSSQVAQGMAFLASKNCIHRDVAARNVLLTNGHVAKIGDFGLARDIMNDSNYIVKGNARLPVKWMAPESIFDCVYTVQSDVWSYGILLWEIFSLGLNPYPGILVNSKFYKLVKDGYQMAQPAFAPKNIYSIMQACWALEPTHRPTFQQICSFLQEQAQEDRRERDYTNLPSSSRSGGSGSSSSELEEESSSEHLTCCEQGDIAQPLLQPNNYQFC
Description: as §1

VEGFR 3 = VEGFR 3 (Homo sapiens, UniProt P35916); assay: kinase selectivity profile; assay type: biochemical
VEGFR 3, sequence (P35916 25-1363): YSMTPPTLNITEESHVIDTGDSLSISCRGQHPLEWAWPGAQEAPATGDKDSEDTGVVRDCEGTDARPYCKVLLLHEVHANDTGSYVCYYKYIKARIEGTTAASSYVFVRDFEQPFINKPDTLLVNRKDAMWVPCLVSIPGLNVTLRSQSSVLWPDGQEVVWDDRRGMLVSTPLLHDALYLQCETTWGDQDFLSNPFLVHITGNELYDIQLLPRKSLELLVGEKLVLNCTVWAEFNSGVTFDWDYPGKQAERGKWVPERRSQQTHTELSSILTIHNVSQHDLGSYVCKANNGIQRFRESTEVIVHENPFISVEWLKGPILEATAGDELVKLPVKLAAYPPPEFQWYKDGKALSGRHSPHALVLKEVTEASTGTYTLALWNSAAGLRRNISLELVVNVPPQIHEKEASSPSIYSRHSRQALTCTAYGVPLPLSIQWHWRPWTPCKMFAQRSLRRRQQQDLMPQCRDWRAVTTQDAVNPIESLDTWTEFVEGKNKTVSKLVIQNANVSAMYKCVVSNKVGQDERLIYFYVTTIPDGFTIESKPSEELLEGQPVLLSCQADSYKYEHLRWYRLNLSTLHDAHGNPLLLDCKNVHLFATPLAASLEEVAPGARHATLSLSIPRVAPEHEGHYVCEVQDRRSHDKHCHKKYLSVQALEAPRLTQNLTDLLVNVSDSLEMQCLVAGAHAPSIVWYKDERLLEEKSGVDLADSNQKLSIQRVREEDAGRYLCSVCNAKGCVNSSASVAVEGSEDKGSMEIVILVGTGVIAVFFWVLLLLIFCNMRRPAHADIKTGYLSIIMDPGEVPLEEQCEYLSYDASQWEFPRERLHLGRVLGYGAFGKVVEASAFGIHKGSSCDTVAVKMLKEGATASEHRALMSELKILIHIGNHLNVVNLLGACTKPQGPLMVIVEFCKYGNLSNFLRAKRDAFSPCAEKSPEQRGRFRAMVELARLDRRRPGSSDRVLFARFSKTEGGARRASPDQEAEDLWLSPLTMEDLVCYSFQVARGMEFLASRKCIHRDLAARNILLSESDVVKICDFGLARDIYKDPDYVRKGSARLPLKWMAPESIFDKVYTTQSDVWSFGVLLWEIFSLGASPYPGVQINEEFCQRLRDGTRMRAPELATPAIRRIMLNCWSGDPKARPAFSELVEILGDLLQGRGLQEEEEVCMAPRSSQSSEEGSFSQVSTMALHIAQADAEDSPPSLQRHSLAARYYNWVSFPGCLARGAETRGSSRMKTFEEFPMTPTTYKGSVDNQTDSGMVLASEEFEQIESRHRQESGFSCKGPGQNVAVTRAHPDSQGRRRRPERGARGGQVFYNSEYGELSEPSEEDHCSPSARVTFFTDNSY
Description: as §1

FGFR1 = FGFR1 (Homo sapiens, UniProt P11362); assay: kinase selectivity profile; assay type: biochemical
FGFR1, sequence (P11362 22-822): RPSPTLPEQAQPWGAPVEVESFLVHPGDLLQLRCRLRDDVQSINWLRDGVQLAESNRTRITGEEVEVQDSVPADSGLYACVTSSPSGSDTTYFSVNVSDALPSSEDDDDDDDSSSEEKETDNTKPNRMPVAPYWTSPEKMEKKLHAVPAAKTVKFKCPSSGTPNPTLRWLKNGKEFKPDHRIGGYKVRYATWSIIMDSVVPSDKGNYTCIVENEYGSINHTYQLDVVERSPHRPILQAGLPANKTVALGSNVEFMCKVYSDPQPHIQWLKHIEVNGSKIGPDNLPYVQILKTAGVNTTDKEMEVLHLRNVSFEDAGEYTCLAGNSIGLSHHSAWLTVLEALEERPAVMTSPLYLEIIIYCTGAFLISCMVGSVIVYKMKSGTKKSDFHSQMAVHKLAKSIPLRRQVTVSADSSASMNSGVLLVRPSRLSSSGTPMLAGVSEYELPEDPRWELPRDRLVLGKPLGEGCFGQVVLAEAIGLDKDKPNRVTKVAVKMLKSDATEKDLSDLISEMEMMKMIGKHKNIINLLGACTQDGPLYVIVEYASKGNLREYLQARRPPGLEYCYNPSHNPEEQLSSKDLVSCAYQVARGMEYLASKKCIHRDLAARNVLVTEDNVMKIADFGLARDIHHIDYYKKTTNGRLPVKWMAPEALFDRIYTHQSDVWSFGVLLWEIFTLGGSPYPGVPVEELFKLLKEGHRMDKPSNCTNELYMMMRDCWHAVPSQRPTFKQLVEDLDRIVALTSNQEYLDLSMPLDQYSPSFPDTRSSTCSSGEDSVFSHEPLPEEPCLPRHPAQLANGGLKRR
Description: as §1

pancreatic NET patients [2] = system: pancreatic NET patients; design: method as in PMID 21306238; settings: phase III trial; cited from earlier work
GI and lung NET patients = system: GI and lung NET patients; design: method as in PMID 26703889; settings: phase III trial; cited from earlier work
pancreatic NET patients [3] = system: pancreatic NET patients; design: method as in PMID 21306237; settings: phase III trial; cited from earlier work
[4] = three NET patients who progressed on prior VEGFR kinase inhibitors

For Cc1cc2cc(Oc3ccnc(Nc4cccc(CS(=O)(=O)NCCN(C)C)c4)n3)ccc2[nH]1 [Sulfatinib], which “patients with confirmed PR” value (advanced solid tumors; all 77 patients) is on record?
The value was “Nine”.

What about the “patients with sustainable SD” value (advanced solid tumors; all 77 patients) of the same compound?
Its value is 23.

What about the “objective response rate (ORR)” value (advanced solid tumors; all 77 patients (9/77)) of the same compound?
The value was 11.7%.

And the “disease control rate (DCR)” value (advanced solid tumors; all 77 patients (32/77))?
Its value is 41.6%.

And the “patients achieving PR” value (advanced solid tumors; [4])?
The value was “one”.

What about the “patients achieving SD” value (advanced solid tumors; [4]) of the same compound?
Its value is “two”.

What about the IC50 (278 other kinases) of the same compound?
Its IC50 is > 150 nM.

What about the “maximum tolerated dose (MTD)” value [1] of the same compound?
Its value is “not reached”.

What about the IC50 (TrkB) of the same compound?
Its IC50 is 41 nM.

What about the IC50 (VEGFR 1) of the same compound?
Its IC50 is 2 nM.

What about the IC50 (VEGFR 2) of the same compound?
Its IC50 is 24 nM.

What about the IC50 (FLT3) of the same compound?
The IC50 was 67 nM.

And the IC50 (CSF1R)?
Its IC50 is 4 nM.

And the IC50 (VEGFR 3)?
The IC50 was 1 nM.

What about the IC50 (FGFR1) of the same compound?
Its IC50 is 15 nM.

Which ORR (pancreatic NET patients [2]) does the source give for CO[C@H]1C[C@@H]2CC[C@@H](C)[C@@](O)(O2)C(=O)C(=O)N2CCCC[C@H]2C(=O)O[C@H]([C@H](C)C[C@@H]2CC[C@@H](OCCO)[C@H](OC)C2)CC(=O)[C@H](C)/C=C(\C)[C@@H](O)[C@@H](OC)C(=O)[C@H](C)C[C@H](C)/C=C/C=C/C=C/1C [everolimus] here?
The ORR was 5%.

What about the “median PFS” value (pancreatic NET patients [2]) of the same compound?
The value was 11.0 months.

What about the ORR (GI and lung NET patients) of the same compound?
The ORR was 2%.

And the “median PFS” value (GI and lung NET patients)?
Its value is 11.0 months.

With CCN(CC)CCNC(=O)c1c(C)[nH]c(/C=C2\C(=O)Nc3ccc(F)cc32)c1C [sunitinib] as the compound, how does the ORR (pancreatic NET patients [3]) read?
Its ORR is 9.3%.

What about the PFS (pancreatic NET patients [3]) of the same compound?
The PFS was 11.0 months.
